Data from patent US20230227476A1, “GALLIUM-SALOPHEN ANTIMICROBIAL COMPOUNDS AND METHODS OF USE THEREOF” (priority 2020, published 2023).
Several values for one entry are separate records, joined by “and”; a condition that tells them apart may be missing. Equal entries are not always repeated. Entries after “also recorded” stand apart in the source; their conditions may differ.

Assays:
[1] = test system: P. aeruginosa (PiuA); settings: cited from earlier work
[2] = test system: Has signaling cascade (hasR promoter); experiment: hasR-lacZ β-galactosidase transcriptional reporter assay; format: cell-based, Pseudomonas aeruginosa; settings: for transcriptional activation of the hasR promoter (Has signaling): 1 μM pre-formed HasAp complex, relative to heme (holo-HasAp)
Method: Transcriptional Reporter Assay. The chromosomal fusions of the PhasR-lacZ and promoterless lacZ gene were previously constructed and used to report on transcriptional activation of the Has signaling cascade. For all β-gal assays, strains were grown overnight in 50 mL LB broth with shaking at 37° C. Cells were harvested by centrifugation and resuspended in M9 media. Strains were then inoculated at A600=0.05 in triplicate in 25 mL of M9 minimal medium and cultured for 3 h to deplete bacterial iron stores. Growth cultures were then supplemented with 1 μM of either holo-HasAp, GaPPIX-HasAp, FeSal-HasAp or GaSal-HasAp. Aliquots (1 mL) at 0 (just prior to supplementation), 2 and 5 h post supplementation were harvested and assayed for […] activity as described previously.
Testing new GaSal analogs (KD<1 μM) for inhibition of heme sensing by transcriptional reporter assays. Transcriptional reporter assays to determine inhibition of the dependent CSS cascade are performed. It was previously shown that GaSal-HasAp inhibits transcriptional activation of the has operon (FIG. 10B). Furthermore, as the deletion of hasR attenuates virulence, inhibition of the signaling pathway combined with decreased heme uptake is a viable therapeutic strategy. PAO1 hasR-lacZ cultures are grown under iron limiting conditions in defined media (M9 or SSM) pelleted and washed to remove exogenous HasAp. Cells are resuspended to a final OD600 of 0.05 and supplemented with 1.0 μM HasAp reconstituted with heme or selected GaSal derivatives. Samples are removed at various times (0.5-5 h) and assayed for β-Gal activity and corrected for differences in OD600. Competition assays are also performed in the presence of varying heme and salophen concentrations.

[3] = biological target: T1, HasAp (Pseudomonas aeruginosa, UniProt G3XD33); experiment: Circular dichroism thermal denaturation of HasAp; settings: circular dichroism at 222 nm, 10 μM HasAp
T1 sequence (G3XD33 entry or part of it): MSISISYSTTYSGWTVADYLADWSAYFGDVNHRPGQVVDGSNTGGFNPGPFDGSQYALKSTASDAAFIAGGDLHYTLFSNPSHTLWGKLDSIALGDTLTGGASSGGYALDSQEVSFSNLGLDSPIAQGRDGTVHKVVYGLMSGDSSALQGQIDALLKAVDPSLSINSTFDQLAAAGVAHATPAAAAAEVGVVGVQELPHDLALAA
Method: Circular Dichroism. Circular dichroism experiments were performed on a Jasco J-810 spectropolarimeter using 1 mm quartz cuvettes. All samples were recorded with 10 μM HasAp in 10 mM potassium phosphate (pH 7.4) at 25° C. from 190 to 260 nm at a scan rate of 50 nm/min, with each spectrum representing 5 accumulations. Data were acquired at […] resolution and 10 nm bandwidth. The mean residue ellipticity (degrees cm^2 dmol^−1) was calculated using CDPRO software as recommended by Jasco. Thermal denaturation studies were performed over a temperature range of 20-90° C. at 222 nm. Melting temperatures were determined by fitting denaturation data to a Boltzmann-Sigmoidal distribution in GraphPad Prism 8.

[4] = biological target: T1, HasAp; experiment: Binding affinity to HasAp by fluorescence quenching; settings: for Kd: read-out: KD (nM), binding affinities of ligands to HasAp, fluorescence quenching, 1 μM apo-HasAp, 20 mM sodium phosphate pH 7.4, 25° C.; for binding to HasAp weaker than heme: relative to heme
Method: Binding Affinity Determination by Fluorescence Quenching. Binding affinities were determined on an ISS K2 multifrequency fluorometer in L-format using 1 cm quartz cuvettes. To a 1 μM solution of apo-HasAp in 20 mM sodium phosphate buffer (pH 7.4, 25° C.) was titrated ligand of interest. Emission spectra were recorded (300-500 nm) following excitation at 295 nm. The decrease in maximum emission was plotted against the ligand concentration (accounting for dilution) and fit to one-site binding using GraphPad Prism 8.
Determine binding affinities (KD) by FQ. KD values of all synthesized compounds are calculated by FQ using previously described methods. Binding affinities are determined in a final volume of 200 μL in black flat-bottom 96-well plates using microplate reader. HasAp concentration is kept at 1.0 μM in Tris-HCl buffer (20 mM, pH 8.0). Inhibitors solvated in DMSO are added across a concentration range of 0.01 to 100 μM. The HasAp excitation (295 nm) emission spectrum is recorded from 300-500 nm. The KD values are calculated from plots of total binding vs. ligand concentration, where total binding corresponds to the fraction of binding sites represented by the decrease in fluorescence at the maximum emission (332 nm). All experiments are performed in triplicate.

[5] = biological target: T1, HasAp; experiment: Saturation transfer difference NMR in PAO1 ΔhasAp supernatant; format: binding; settings: GaSal 1 mM, HasAp 10 μM, PAO1 ΔhasAp supernatant
Method: (§1) Saturation Transfer Difference NMR. PAO1 ΔhasAp was cultured overnight from a single colony in LB Broth. The cells were harvested by centrifugation and resuspended in M9 Minimal Media. 10 mL of M9 were inoculated at A600˜0.05 and grown for 3 h. Cell-free supernatant was obtained by centrifugation and subsequent filter-sterilization by a […] syringe filter. Supernatant was then used as the solvent for subsequent STD experiments. Final sample volume contained 600 μL of supernatant with or without 10 μM HasAp (as a negative control) and 5% D2O for solvent locking.
(§2) The STD experiments were performed at 25° C. on an Agilent DD2 500 MHz spectrometer. The vendor supplied pulse sequences, dpfgse_satxfer.c was used, the on- and off-resonance fids are subtracted in-place through phase-cycling, to yield only the difference fid. Selective saturation was performed for 2.5 s and consisted of 50 ms Gaussian pulses separated by a 1-ms delay at a field strength of 50 Hz. […]
(§3) Determine the binding mode of GaSal and top derivatives by STD-, ^1H-^15N HSQC-NMR, and HDX-MS. […] Following incubation (4 h) 4,4-dimethyl-4-silapentane-1-sulfonic acid (DSS, 3 μL in D20) is added as internal standard and spectra recorded as reported. […] Combined chemical shift differences between the apo and each of the titration points are calculated using the following equation: […]

[6] = test system: HasAp; experiment: as above; format: binding, Pseudomonas aeruginosa; settings: 1H NMR, 24 hr
Method: as §1, §2, §3

[7] = test system: P. aeruginosa PAO1 and mutants; experiment: Growth curves / antibacterial activity in M9 minimal medium; format: cell-based, Pseudomonas aeruginosa; settings: M9 minimal media, 96-well plate
Method: Growth Curves. P. aeruginosa strains were grown overnight in 50 mL LB Broth with shaking at 37° C. Cells were harvested by centrifugation and resuspended in M9 minimal medium. Strains were then inoculated at A600=0.05 in 10 mL M9 minimal medium and grown for 3 h to deplete bacterial iron stores. Cultures were then plated in 96-well plates (Costar clear, flat-bottom with lid, Corning Inc) at A600≈0.05 to a final volume of 200 μL in M9 medium. Supplements (2 μL) were added as 100× stock solutions. Growth curves were recorded at 600 nm with a Biotek Synergy™ HT plate reader over 16 h of growth with shaking at 37° C. To account for background absorbance, blank wells were prepared with the same supplements but only M9 medium without culture. The blank wells were subtracted from the average of three growth wells per condition.

| SMILES | transcriptional activation of the hasR promoter (Has signaling) [2] | melting temperature of HasAp [3] | Kd [4] | binding to HasAp weaker than heme [4] | other results |
| --- | --- | --- | --- | --- | --- |
| CC(C)(O/N=C(\C(=O)N[C@@H]1C(=O)N2C(C(=O)[O-])=C(C[N+]3(CCNC(=O)c4ccc(O)c(O)c4Cl)CCCC3)CS[C@H]12)c1csc(N)n1)C(=O)O [Cefiderocol] |  |  |  |  | resistance rates ([1]; at 10×MIC): < 7×10^−9; increase in MIC ([1]; mutations with a deficiency in PiuA): ~20 fold |
| Oc1ccccc1C=Nc1ccccc1N=Cc1ccccc1O.[Ga+3] [GaSal, GaSalophen Nitrate] | inhibited the holo-HasAp activation of the cell surface signaling cascade; also recorded: inhibition of transcriptional activation relative to heme or GaPPIX; also recorded: decreased transcriptional activation relative to heme | 65 °C | 1110 ± 220 nM | ~3 fold | β-galactosidase production ([2]; at 5 hours): increased β-galactosidase when compared to FeSal; STD NMR saturation transfer from HasAp [5]: saturation transfer among all protons of GaSal; stability in PAO1 ΔhasAp supernatant [6]: still intact after 24 hr |
| C=CC1=C(C)c2cc3[nH]c(cc4nc(cc5[nH]c(cc1n2)c(C)c5CCC(=O)O)C(CCC(=O)O)=C4C)c(C)c3C=C.[Ga+3] [GaPPIX, Gallium protoporphyrin IX] | no inhibition of transcriptional activation relative to heme; also recorded: increased (2 h) or similar transcriptional activation to heme |  | 280 ± 30 nM |  | growth of P. aeruginosa PAO1 [7]: inhibits growth |
| Oc1ccccc1C=Nc1ccccc1N=Cc1ccccc1O.[Fe+3] [FeSal, FeSal Chloride] | inhibited the holo-HasAp activation of the cell surface signaling cascade; also recorded: inhibition of transcriptional activation relative to heme or GaPPIX; also recorded: decreased transcriptional activation relative to heme |  | 1100 nM and 1050 nM | ~3 fold |  |
| C=CC1=C(C)c2cc3[nH]c(cc4nc(cc5[nH]c(cc1n2)c(C)c5CCC(=O)O)C(CCC(=O)O)=C4C)c(C)c3C=C.[Fe+3] [Heme] |  | > 90 °C | 350 ± 50 nM |  |  |
